Where “and” joins values, the source holds several entries; their conditions need not be identical. Equal entries are not always repeated.
Key:
DPPH assay = format: biochemical; settings: at 100 μM; 1 mL 0.2 mM DPPH, 30 minutes
Method: L-Ascorbic acid (Sigma Aldrich) was used as a positive control. […] MRS broth not treated with a strain was used as a negative control. After the reaction, OD515 was measured using a spectrophotometer and DPPH radical scavenging activity was calculated according to the following equation. DPPH radical scavenging activity (%)=[(Absorbance of control to which sample was not added)−(Absorbance of group to which sample was added)]/(Absorbance of control to which sample was not added) […] The experiment was conducted 3 times and the average value was obtained.

B16 melanoma cells = assay: B16 melanoma cell melanin assay (melanogenesis inhibiting ability); format: cell-based; settings: 100 ppm sample, 200 nM a-MSH; for extracellular OD475 / extracellular melanin / extracellular melanin, % of control / melanin/protein: replicates 1-3
Method: Skin-whitening effect was evaluated as described below. B16 melanoma cells were seeded onto a 12-well plate at a density of 1.5×10^5 cells per well. DMEM (Dulbeco's modified Eagle's medium) supplemented with 10% fetal bovine serum was used and the cells were cultured for 24 hours (10% CO2, 37° C.). The 12-well plate onto which the B16 melanoma cells were seeded was treated with 200 nM melanocyte-stimulating hormone (MSH) and then the 12-well plate was treated with each sample (25, 50, 100 and 200 ppm). The test groups were: a group treated with sonicated identified strain (LBS sonication), a group treated with heat-killed identified strain (LBS heat), and a group treated with cultural filtrate of the identified strain (culture). […] The cells treated with nothing were used as a negative control group and those treated only with MSH was used as a vehicle group. After the treatment, the cell culture (extracellular melanin) was transferred to a 96-well plate and absorbance was measured at 475 nm. […] The calculated melanin content was normalized to the total protein content for each group and the melanogenesis inhibiting ability was evaluated by comparing with the control groups. The experiment was repeated 3 times.

SMILES | DPPH radical scavenging activity (DPPH assay) | extracellular melanin, % of control (average of 3) (B16 melanoma cells) | extracellular OD475 (B16 melanoma cells) | extracellular melanin (B16 melanoma cells) | extracellular melanin, % of control (B16 melanoma cells) | melanin/protein (B16 melanoma cells)
O=C1O[C@H]([C@@H](O)CO)C(O)=C1O [L-ascorbic acid] | about 7% |  |  |  |  | 
OC[C@H]1O[C@@H](Oc2ccc(O)cc2)[C@H](O)[C@@H](O)[C@@H]1O [arbutin] |  | 111.1 % of control | 0.281 and 0.252 and 0.274 | 138.50 ppm and 124.00 ppm and 135.00 ppm | 116.8 % of control and 106.1 % of control and 110.5 % of control | 214.2 µg/mg and 194.5 µg/mg and 202.6 µg/mg
O=c1cc(CO)occ1O [kojic acid] |  | 67.3 % of control | 0.163 | 68.00 ppm and 70.00 ppm and 79.50 ppm | 65.1 % of control and 65.3 % of control and 71.5 % of control | 119.4 µg/mg and 119.7 µg/mg and 131.2 µg/mg

Source: US10251919B2, “Method for improving skin condition or anti-microorganisms or anti-oxidation using Lactobacillus sakei MD honeysuckle” (AMOREPACIFIC CORPORATION, priority 2015, dated 2019)
